Experiments:
latent HIV-1 = test: HIV-1 latency reversal activity, GFP expression of J-Lat 10.6 cells; format: cell-based; conditions: for HIV-1 latency reversal activity of isolated compounds (in words): J-lat 10.6 cells, GFP expression, tested at 1, 10 and 100 μM; for EC50: Human immunodeficiency virus 1, J-Lat 10.6, read-out: latency EC50, J-Lat 10.6 cells, HIV-1 reactivation dose-response
Experimental: (§1) Figure 1 HIV-1 latency reversal activity of methanolic crude extract (EU), partitioned n-hexane (EU-H), dichloromethane (EU-C), ethyl acetate (EU-E), and water-soluble residue (EU-W) phases. (A) dose-response experiments conducted with Jurkat T cells that were latently infected with full-length HIV-1 reporter construct (J-Lat 10.6 cells), HIV-1 reactivation quantified as % of positive control (PMA); (B) cell viability of each sample at 10, 50, 100, 500, and 1000 μg/mL.
(§2) Jurkat cells with a full-length integrated HIV-1 provirus that have been modified to contain a GFP coding region in place of the env gene (J-lat 10.6 cells) were used for HIV-1 anti-latency activity, cytotoxicity, and cellular activation testing. All 31 compounds were tested at 1, 10, and 100 μM. […] These compounds were further tested at additional concentrations to determine dose response and toxicity curves (Figure 5A–F). Cell viability for all isolated compounds is presented in Figure S106 in the supplementary material.
The HIV-1-infected Jurkat T cell line (J-Lat 10.6) was obtained in January 2019 from the NIH/ATCC HIV-1 Reagent Program (www.hivreagentprogram.org) and cultured in RPMI-based media supplemented with 10% fetal calf serum, 1% penicillin, and 1% streptomycin.
(§3) After in vitro culture, J-lat cells were washed with phosphate-buffered saline (1× PBS) prior to staining with 0.1 µL fixable viability dye Live/Dead Aqua (Cat L34957, www.thermofisher.com) per 10^5 cells for 30 min at 4 °C. Simultaneously, J-lat cells were also stained with antibodies against CD69 conjugated to an APC fluorophore (APC anti-human CD69 antibody, biolegend.com). Cells were then washed and re-suspended in 1× PBS prior to flow cytometry acquisition evaluating for cellular viability, green fluorescent protein (GFP) expression, and CD69 expression. Flow cytometry was performed with a BD FACSCelesta or FACSCanoto flow cytometer with FACSDiva acquisition software (Becton Dickinson, Mountain View, CA) prior to analysis with FlowJo (TreeStar Inc., Ashland, OR, USA).
Isolated compounds were resuspended in dimethyl sulfoxide (DMSO; Sigma-Aldrich, Burlington, USA), at a concentration of 10 mM, and diluted with PBS, and tested with J-lat 10.6 cells at concentrations of 100, 10, and 1 μM. J-lat 10.6 cells were tested with compounds at a concentration of 2.5 × 10^5 cells/mL. We performed a minimum of three replicates of each condition for all experiments. Negative controls contained 1% DMSO to account for any effect of DMSO in the highest dilution of compounds.

CD69 = CD69 expression on J-lat cells (flow cytometry); format: cell-based, human
Experimental: (§4) In order to determine whether our active compounds were acting through PKC, we evaluated the latency reversal activity of each of these compounds in the presence and absence of a pan-PKC inhibitor, Gö6983 (Figure 7).
as §3

PKC = test: Latency reversal activity in the presence and absence of pan-PKC inhibitor Gö6983; format: cell-based, human; conditions: presence versus absence of pan-PKC inhibitor Gö6983
Source text: as §4
Figure 7 Effect of PKC inhibition on HIV-1 reactivation of compounds 13–14, 21, 26, and 27.

latent HIV = test system: latent HIV; set-up: method as in PMID 30031972; conditions: read-out: EC50, reactivation of latent HIV; cited from earlier work
in vitro = format: cell-based, human; conditions: human, J-Lat 10.6 cells; read-out: cellular CC50
Experimental: as §1, §2, §3
(§5) Isolated compounds were resuspended in dimethyl sulfoxide (DMSO; Sigma-Aldrich, Burlington, USA), at a concentration of 10 mM, and diluted with PBS, and tested with J-lat 10.6 cells at concentrations of 100, 10, and 1 μM. J-lat 10.6 cells were tested with compounds at a concentration of 2.5 × 10^5 cells/mL. […]

J-Lat 10.6 cells = test: in vitro; format: cell-based, human; conditions: read-out: cellular CC50
Experimental: as §1, §2, §3, §5

HIV-1 = conditions: read-out: EC50, anti-HIV-1 activity; cited from earlier work
HIV-1 latency = test system: HIV-1 latency; set-up: method as in PMID 30944245; conditions: through the PKC pathway; cited from earlier work

Compound: COc1cc(C2OCC3C(c4cc(OC)c(O)c(OC)c4)OCC23)cc(OC)c1O (single isomer, unassigned; (+)) [Compound 26, (+)-syringaresinol]
- HIV-1 latency reversal activity of isolated compounds (in words) (latent HIV-1): showed HIV-1 latency reversal activity
- CD69 expression (hallmark of PKC activation) (in words) (CD69): did not increase CD69 expression
- latency reversal activity when PKC was inhibited (in words) (PKC): did not show a significant reduction

Compound: C/C=C(/C)C(=O)O[C@H]1C(C)=C[C@]23C(=O)[C@@H](C=C(CO)[C@@H](O)[C@]12O)[C@H]1[C@@H](C[C@H]3C)C1(C)C [3-angeloylingenol]
- EC50 (latent HIV): 0.0042 µM

Compound: CC(=O)O[C@@]12[C@H](OC(=O)c3ccccc3)[C@@H](C)[C@]3(O)[C@@H]4C=C(C)C(=O)[C@@H]4CC(CO)=C[C@H]3[C@@H]1C2(C)C [Compound 13, crotignoid K]
- EC50 (latent HIV-1): 3.75 µM
- HIV-1 latency reversal activity of isolated compounds (in words) (latent HIV-1): showed HIV-1 latency reversal activity
- CC50 at 24 h (in vitro): 40 µM
- latency reversal activity when PKC was inhibited (in words) (PKC): reduced efficacy

Compound: CC(=O)O[C@@]12[C@H](OC(=O)c3ccccc3)[C@@H](C)[C@]3(O)[C@@H]4C=C(C)C(=O)C4=CC(C)=C[C@H]3[C@@H]1C2(C)C [Compound 12, 12-O-benzoyl-13-acetoxy-4,20-dideoxyphorbol-4-ene]
- HIV-1 latency reversal activity of isolated compounds (in words) (latent HIV-1): showed HIV-1 latency reversal activity
- latency reversal activity when PKC was inhibited (in words) (PKC): reduced efficacy

Compound: COc1cc([C@H]2Oc3c(OC)cc(/C=C/COC(C)=O)cc3[C@@H]2COC(C)=O)ccc1O [Compound 27, dimeric coniferyl acetate]
- HIV-1 latency reversal activity of isolated compounds (in words) (latent HIV-1): showed HIV-1 latency reversal activity
- CD69 expression (hallmark of PKC activation) (in words) (CD69): did not increase CD69 expression
- latency reversal activity when PKC was inhibited (in words) (PKC): did not show a significant reduction

Compound: CC(=O)O[C@@]12[C@H](OC(=O)c3ccccc3)[C@@H](C)[C@]3(O)[C@@H]4C=C(C)C(=O)[C@H]4CC(CO)=C[C@H]3[C@@H]1C2(C)C [Compound 14, 4β-Crotignoid K]
- EC50 (latent HIV-1): 0.015 µM
- fold difference in selectivity index (CC50/EC50), 14 versus 13 (latent HIV-1; J-Lat 10.6 cells, compared to crotignoid K (13)): ~ 1000 fold
- HIV-1 latency reversal activity of isolated compounds (in words) (latent HIV-1): showed HIV-1 latency reversal activity
- CC50 at 24 h (in vitro): 160 µM
- CC50 (J-Lat 10.6 cells): > 160 µM
- latency reversal activity when PKC was inhibited (in words) (PKC): reduced efficacy

Compound: ent-3-oxoatisan-16α,17-acetonide
- EC50 (HIV-1): 24 µM

Compound: CC1=C2C=C3CC[C@@H]4C(C)(C)C(=O)CC[C@@]4(C)[C@@H]3C[C@H]2OC1=O [Compound 21, helioscopinolide E]
- HIV-1 latency reversal activity of isolated compounds (in words) (latent HIV-1): showed HIV-1 latency reversal activity
- latency reversal activity when PKC was inhibited (in words) (PKC): reduced efficacy

Compound: CC1=C[C@]23C(=O)[C@@H](C=C(CO)[C@@H](O)[C@]2(O)[C@H]1O)[C@H]1[C@@H](C[C@H]3C)C1(C)C [ingenol]
- reactivation of HIV-1 latency (in words) (HIV-1 latency): significant effect in the reactivation of HIV-1 latency

Compound: CC1(C)OC[C@@]2(C[C@]34CC[C@H]2C[C@H]3[C@]2(C)CC[C@H](O)C(C)(C)[C@H]2CC4)O1 [euphorneroid D]
- EC50 (HIV-1): 34 µM

Compound: CC1=C[C@]23C(=O)[C@@H](C=C(CO)[C@@H](O)[C@]2(O)[C@H]1OC(=O)c1ccc2ccccc2c1)[C@H]1[C@@H](C[C@H]3C)C1(C)C [3-(2-naphthoyl)ingenol]
- EC50 (latent HIV): 0.0024 µM
